Laboratory results reported in patent US5601806A, “Methods for scavenging active oxygen compounds and preventing damage from ultra violet B rays using taurine analogues” (Sogo Pharmaceutical Company Limited, priority 1991, dated 1997).

How the values were obtained:
[1] = SOD-mimic functions of thiotaurine (xanthine-xanthine oxidase-NBT method); format: biochemical
Description: Experimental method: Measurement of the SOD-mimic functions was done, with slight modifications, according to the Xanthine-xanthine oxidase-nitrobluetetrazolium (NBT) method described in Lipid Peroxide Experiments (edited by N. Kaneda, N. Ueda, Ishiyaku Press, p. 144). The measurement is based on measuring at 560 nm the amount of formazan produced by the reduction of NBT with a superoxide which results from the oxidation of xanthine with xanthine oxidase, and calculating the activation thereof. The modification involved irradiation with UVB ([…], 1.8 J/cm^2, 313 nm) for 5 minutes while simultaneously adding the xanthine oxidase, in order to interrupt the reaction.

SOD = SOD (Bos taurus, UniProt P00442); test: SOD activating function; format: biochemical; settings: read-out: SOD activating function (SOD activation rate)
Protocol: (§1) Next, a measurement was made of the SOD activating function.
Method of measurement of SOD activating function
Test Comp. 0.1 0.1 -- --
Preincubate 25° C., 10 min.
UVB radiation, 6.0 mw/cm^2, 5 min. (1.8 J/cm^2)
(1) System for observing whether the consumption of superoxides by SOD is
further increased with the test composition.
(§2) (3) System for inhibiting XOD reaction with SOD. XOD reaction was 20%
(4) System for a complete, uninhibited XOD reaction.
The SOD activation rates of the test compositions were calculated using the equation listed as Equation 1 below, and the results shown in Table 3 were obtained. [formula]

[2] = Reactivity with singlet oxygen, riboflavin (Rf)/h.nu.-system; format: biochemical; settings: for thiotaurine reacted with ^1 O2 (decomposition): absence of NaN3, pH 7.8
Protocol: Fourteen milligrams of thiotaurine and 1.5 mg of riboflavin (Rf) were dissolved in 50 ml of a wing buffer solution (pH 7.8), after which light irradiation (FL20SBRF Toshiba, UVA 0.1 mW/cm^2, UVB 0.1 mW/cm^2, visible light 0.4 mW/cm^2) was initiated in the presence and in the absence of 34 mg of sodium azide (NaN3). After continuously reacting the product from the reactant solution with dansyl chloride, a fluorescent reagent, high-performance liquid chromatography was used for separation and analysis.
The conditions for the high-performance liquid chromatography were as listed below.
Mobile phase: 0.1M phosphate buffer solution: THF ([…]): acetonitrile=670:40:350
The results obtained are shown in FIG. 1 as percentages (%) for the proportions of thiotaurine, hypotaurine and taurine at each hour shown.
It is assumed that in the Rf/h.nu.-system ^1 O2 is produced according to the formula listed below as Chemical formula 7.

[3] = Reactivity with ^1 O2 in riboflavin, rose bengal and methylene blue/h.nu.-systems with DABCO; format: biochemical; settings: DABCO as quencher
Description: Therefore, the 3 systems listed below were used in identical experiments.
1. Riboflavin/h.nu.-system, 1,4-diazabicyclooctane (DABCO) as ^1 O2 quencher
2. Rose bengal/h.nu.-system DABCO as ^1 O2 quencher
3. Methylene blue/h.nu.-system DABCO as ^1 O2 eliminator

[4] = Lipid peroxide production inhibitory effect; format: biochemical
Protocol: Fifty ml of a solution prepared by combining a solution of 12.5 mg of methyl linoleate, 2.5 mg of Rf and 2-70 mg of thiotaurine in ethanol with a wing buffer solution, and the resulting solution was subjected to light irradiation as in Experiment 2. After a determined period of time a sample was recovered, and the lipid peroxides were measured using the Yagi method.

[5] = Preventing effect on photo-oxidation of methionine by hydroxyl radical; format: biochemical; settings: 1 mM thiotaurine, 1 mM methionine, riboflavin, NADH, Fe (II) EDTA, UVA 370 nm
Protocol: In a quartz cell was placed 1 mM of methionine, riboflavin, NADH and Fe (II) EDTA, and super high pressure mercury lamp rays (UVA 370 nm) were irradiated thereto, thus presenting a control. Next, 1 mM of thiotaurine was added to the same system mentioned above and the reaction was initiated by light irradiation as before, while the two reactions were sequentially followed by HPLC and finally compared.
These systems, to which the Fe (II) chelate compound and electron donor, NADH, were added in the presence of riboflavin, produced the HO.

[6] = H2 O2 scavenging function; format: biochemical
Protocol: In a quartz cell were placed 1 mM of thiotaurine and […] of H2 O2, and the change in thiotaurine was measured by HPLC while irradiating with light.

[7] = Influence of externally applied thiotaurine on UVB rays (erythema, SPF); format: in vivo, male Hartley guinea pigs
Protocol: Thiotaurine was added to a base cream of the composition indicated in Table 5, at concentrations of 5.0% (w/w) and 7.5% (w/w), respectively.
Experimental method: In this experiment, male Hartley guinea pigs of body weight 230-250 g were used. The back, abdomen and side hair of the guinea pigs was first roughly removed with hair clippers, after which the hair was completely removed with care using a Brown electric shaver. On the morning of the next day, the hair was again removed, the body weights measured, and the groups divided. The UVB radiation was applied in 10 stages of 0.075, 0.1, 0.15, 0.2, 0.3, 0.4, 0.5, 0.6, 0.7, and 0.8. Five minutes prior to irradiation, the base cream was applied to the control area, and the thiotaurine-containing cream preparations were applied to the test area. Then observations were made 2, 4, 6, 8, and 24 hours later to determine the presence of erythema, visually.
1; Difficult to determine presence or absence of erythema
2; Erythema clearly present but edges unclear
3; Erythema clearly present and edges clear

[8] = Effect on hydrocortisone induced chick embryo cataract; format: in vivo, White leghorn chick embryos; settings: HC 0.12 mg/egg
Protocol: White leghorn chick embryos were incubated in an incubator at a temperature of 37° C. and a humidity of approximately 70%. Then a solution of 0.12 mg of hydrocortisone succinate (HC) in 0.2 ml of purified water was administered through the air chambers of the eggs of the control group and the test group on the 15th day of incubation. Thiotaurine was then given to the test group 2 hours, or 2 and 5 hours, after HC administration.
The lenses were removed 8 hours after HC administration, and the presence of cataracts was judged according to the criteria listed in Table 8, using the method of Nishikuni, et. al. (Investigative Opthamology and Visual Science, 25, p. 1051, 1984).
I. Lens was clear and indistinguishable from control.
IV: Pinhole-sized clear area in an opaque nucleus.

[9] = Effect on alloxan diabetes; format: in vivo, Wistar Imamichi rats; settings: 500 mg/kg oral once a day, 2 weeks
Protocol: Thiotaurine was orally administered in an amount of 500 mg/kg once a day to Wistar Imamichi rats, for a period of 2 weeks. Three days prior to the last administration of the medicine feeding of the rats was stopped for 16 hours, and alloxan dissolved in chilled physiological saline was intravenously injected at an amount of 75 mg/kg. One hour after the last administration of the medicine, the rats were killed, their blood was obtained, and a measurement was made of the triglycerides and blood sugar in the blood, using the enzyme method.

[10] = Long-term administration to rats, 180 days; format: in vivo; settings: 200 mg/kg every day
Description: The active ingredient compound according to the present invention, an aminothiosulfonic acid, not only functions as a light shield and as a production inhibitor or scavenger of lipid peroxides and active oxygen, but since it and its decomposition products are structurally similar to compounds which are naturally present in the body including taurine, etc. (C.R. Acad. Sci., Ser. 3, 302 (13) 503-8: Presence of Large Quantities of Thiotaurine and Hypotaurine in the Tissues of Riftia pachyptila), its toxicity is extremely low making it a safe substance.

in vivo = settings: rat, SD male and female rats, oral
bacteria = format: cell-based; settings: coexistence or non-coexistence with S9Mix
[11] = Primary skin irritation test; format: in vivo; settings: rabbits
Protocol: (§3) In addition, the result was determined to be negative in both a primary skin irritation test and an eye irritation test using rabbits.

[12] = set-up: species or system rabbits; settings: rabbit, in vivo
Protocol: as §3

tyrosinase [13] = test: Tyrosine oxidation preventing effect (tyrosine oxide polymer production); format: biochemical; settings: Ultraviolet rays
Protocol: In a quartz cell was put 1 ml of L-tyrosine (30 mg/100 ml), 1 ml of a tris buffer solution and 0.9 ml of a test solution (6.25×1/10^2 mol/l-1 mol/l), and the mixture was allowed to stand under radiation from an ultraviolet lamp at 37° C. for 10 minutes. Following this, 0.1 ml of tyrosinase (2000 units/ml) were added thereto, and further irradiated under an ultraviolet lamp at 37° C. for 30 minutes, after which the production of tyrosine oxide polymers was measured at 475 nm.

tyrosinase [14] = test: as above; format: biochemical; settings: Indoors
[15] = alloxan; cited from earlier work
XOD = test: Inhibition of XOD reaction by SOD (system (3) of SOD activating method); format: biochemical; settings: SOD 0.1 ml
Description: as §1, §2

[16] = applied externally to the skin; cited from earlier work
[17] = alloxan 75 mg/kg i.v., P < 0.05 vs control group

Sequence of SOD (P00442 whole entry): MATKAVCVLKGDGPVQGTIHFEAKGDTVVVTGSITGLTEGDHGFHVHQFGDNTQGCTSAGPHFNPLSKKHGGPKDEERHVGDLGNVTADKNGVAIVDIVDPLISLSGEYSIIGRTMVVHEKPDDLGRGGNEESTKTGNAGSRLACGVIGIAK

NCCS(=O)(O)=S [thiotaurine, Aminoethyl thiosulfonate]
Superoxide production inhibition rate ([1]; 10^-2 M/reaction solution): 34.4%
Superoxide production inhibition rate ([1]; 10^-3 M/reaction solution): 34.7%
Superoxide production inhibition rate ([1]; 10^-4 M/reaction solution): 43.2%
Superoxide production inhibition rate ([1]; 10^-5 M/reaction solution): 35.7%
Superoxide production inhibition rate ([1]; 10^-6 M/reaction solution): 47.0%
Superoxide production inhibition rate ([1]; 10^-7 M/reaction solution): 34.7%
activation at 10000 µM (SOD; 10^-2 M/reaction solution): 65.8%
activation at 1000 µM (SOD; 10^-3 M/reaction solution): 32.1%
activation at 100 µM (SOD; 10^-4 M/reaction solution): 29.6%
activation at 10 µM (SOD; 10^-5 M/reaction solution): 14.3%
activation at 1 µM (SOD; 10^-6 M/reaction solution): 1.6%
thiotaurine reacted with ^1 O2 (decomposition) ([2]; 2 hours): 40%
thiotaurine reacted with ^1 O2 (decomposition) ([2]; 6 hours): 90%
thiotaurine remaining ([2]; 6 hours, presence of NaN3 (^1 O2 quencher), pH 7.8): approximately 85%
reaction with ^1 O2 [3]: reacts with ^1 O2 in all three systems
prevention of production of lipid peroxides ([4]; 2.8×1/10^4 M, after 7.5 hours, 280 µM): approximately 50%
prevention of production of lipid peroxides ([4]; 4×1/10^3 M, 4000 µM): ~100%
inhibition of methionine oxidation with HO. [5]: inhibits the methionine oxidation with HO., and has a scavenging effect against hydroxy radicals
oxidation of thiotaurine to taurine and hypotaurine with H2 O2, time ([6]; light irradiation, 1 mM thiotaurine): about 3 hours
reaction with H2 O2 ([6]; no light irradiation): did not react at all
SPF value ([7]; 5% (w/w) cream, 2 hr post-irradiation): 3.6
SPF value ([7]; 5% (w/w) cream, 4 hr post-irradiation): 3.6
SPF value ([7]; 5% (w/w) cream, 6 hr post-irradiation): 3.8
SPF value ([7]; 5% (w/w) cream, 8 hr post-irradiation): 4.1
SPF value ([7]; 5% (w/w) cream, 24 hr post-irradiation): 5.0
SPF value ([7]; 7.5% (w/w) cream, 2 hr post-irradiation): 4.4
SPF value ([7]; 7.5% (w/w) cream, 4 hr post-irradiation): 4.3
SPF value ([7]; 7.5% (w/w) cream, 6 hr post-irradiation): 4.3
SPF value ([7]; 7.5% (w/w) cream, 8 hr post-irradiation): 4.3
SPF value ([7]; 7.5% (w/w) cream, 24 hr post-irradiation): 5.7
Determination: lenses of grade II (faint opaque ring) ([8]; 0.5 mg × 1 time/egg): 6/8
Determination: lenses of grade III (distinct opaque ring) ([8]; 0.5 mg × 1 time/egg): 2/8
Determination: lenses of grade I (clear) ([8]; 1.0 mg × 1 time/egg): 2/8
Determination: lenses of grade II (faint opaque ring) ([8]; 1.0 mg × 1 time/egg): 2/8
Determination: lenses of grade III (distinct opaque ring) ([8]; 1.0 mg × 1 time/egg): 4/8
Determination: lenses of grade I (clear) ([8]; 1.0 mg × 2 times/egg): 4/8
Determination: lenses of grade II (faint opaque ring) ([8]; 1.0 mg × 2 times/egg): 4/8
Determination: lenses of grade I (clear) ([8]; 2.0 mg × 2 times/egg): 4/8
Determination: lenses of grade II (faint opaque ring) ([8]; 2.0 mg × 2 times/egg): 4/8
increase of glucose suppressed to, compared with control [9]: 65%
increase of triglycerides suppressed to, compared with control [9]: 70%
Blood sugar [9, 17]: 769.1 ± 120.3 mg/dL
Triglyceride [9, 17]: 363.8 ± 38.2 mg/dL
Blood sugar relative to control group (100) ([9]; control = 100): 65
Triglyceride relative to control group (100) ([9]; control = 100): 70
change in the body weight curve [10]: no change in the body weight curve
deaths [10]: no deaths at all
LD50 (in vivo): > 2000 mg/kg
mutagenicity (Ames Test) (bacteria): no mutagenecity was observed
primary skin irritation [11]: negative
eye irritation [12]: negative

N=C(N)NCCS(=O)(O)=S [thiotaurocyamine]
Inhibition rate (tyrosine oxidation) (tyrosinase [13]; 1 mol/l): 96.6%
Inhibition rate (tyrosine oxidation) (tyrosinase [13]; 1.25 × 10^-1 mol/l): 88.2%
Inhibition rate (tyrosine oxidation) (tyrosinase [13]; 2.5 × 10^-1 mol/l): 92.8%
Inhibition rate (tyrosine oxidation) (tyrosinase [13]; 5 × 10^-1 mol/l): 92.4%
Inhibition rate (tyrosine oxidation) (tyrosinase [13]; 6.25 × 10^-2 mol/l): 78.0%
Inhibition rate (tyrosine oxidation) (tyrosinase [14]; 1 mol/l): 91.5%
Inhibition rate (tyrosine oxidation) (tyrosinase [14]; 1.25 × 10^-1 mol/l): 36.8%
Inhibition rate (tyrosine oxidation) (tyrosinase [14]; 2.5 × 10^-1 mol/l): 61.7%
Inhibition rate (tyrosine oxidation) (tyrosinase [14]; 5 × 10^-1 mol/l): 87.7%
Inhibition rate (tyrosine oxidation) (tyrosinase [14]; 6.25 × 10^-2 mol/l): 12.8%

catalase
symptoms of diabetes [15]: suppressed

superoxide dismutase [SOD]
XOD reaction inhibited by SOD (XOD): 20%
amount of lipid peroxides in the epidermis due to UV rays [16]: lowering the amount of lipid peroxides (LPO) in the epidermis due to UV rays
symptoms of diabetes [15]: suppressed
